Reference: US11028084B2, “Selective inhibitors of gentotoxic steress-induced IKK/NF-κB pathways” (Max-Delbrück-Centrum für Molekulare Medizin in der …, priority 2016, dated 2021)

Key:
Type in all cases: cell-based, human
[1] = test system: IL-1β-induced NF-κB activation; assay: IL-1β-stimulated NF-κB activation, SDS-PAGE/WB and EMSA, U2OS cells
Protocol: FIG. 5: (A) U2OS cell were pre-treated with MW01 followed by stimulation with IL-1p. Cell lysates were used for SDS-PAGE/WB and EMSA. (B) Cells pre-treated with increasing concentrations MW01 were stimulated with IL-1p. Cell lysates were used for SDS-PAGE/WB and stained with indicated antibodies.
For the activation of the canonical NF-κB pathway cells were treated with recombinant human TNFα (10 ng/ml) or IL-1β (10 ng/ml) for 20-30 min at 37° C.

[2] = test system: genotoxic stress-activated NF-κB signaling; assay: TAK1 and p65 S536 phosphorylation after γ-irradiation, WB, HepG2 cells
Protocol: FIG. 6: (A) U2OS cells were pre-treated with DMSO or MW01 and irradiated. Stimulation of cell with IL-1β served as a positive control for IκBα and p65 phosphorylation. Cells were lysed at indicated time points and used for WB analyses. (B,C) Similar experimental setup as in (A). (D) Experiment as in (A-C), but with other time points analysed and performed with HepG2 cells. PARP1 and LDH serve as loading controls.
FIG. 9: HepG2 cells were pre-incubated with DMSO, MW01 (5 μM) or the ATM inhibitor Ku55933 (10 μM) and irradiated. After 60 min cells were harvested and processed. Immunochemical staining of Western blotting membranes was done using indicated antibodies.
FIG. 14: (A) U2OS cells were pre-treated with different concentrations of olaparib prior to co-treatment with etoposide. Whole cell lysis was performed after 90 min and cleared lysates were used for WB with indicated antibodies. (B) U2OS cells were pre-treated with DMSO, olaparib or the ATM inhibitor Ku55933 and co-treated with etoposide. Cells were harvested after 45 min and subjected to SDS-PAGE/WB. Membranes were stained with the indicated antibodies. The experiment of (B) was performed simultaneously to the experiments of (A) and (E) to control functionality of olaparib in inhibiting PAR chain formation. (C) Densitometrical analyses of (A) and two further independent experiments done as shown in (A). (D) U2OS cells were pre-treated with the substances as indicated prior to irradiation. After 90 min mRNA was isolated, transcribed into cDNA and was used for expression analyses of the indicated genes using quantitative real-time PCR (qRT-PCR). (E) HepG2 cells were pre-treated with the PARP inhibitors olaparib, 3-AB and EB-47 prior to γ-irradiation. Cells were harvested after 15 and 90 min and subjected to SDS-PAGE/WB. Membranes were stained with the indicated antibodies. Error bars equal SEM.

IKKγ mono-ubiquitination = IKKγ mono-ubiquitination after irradiation, IKKγ immunoprecipitation, HEK293 cells
Protocol: FIG. 11: (A) HEK293 cells were pre-incubated with DMSO, MW01 or ATM inhibitor KU55933 and irradiated. Lysates were subjected to SDS-PAGE/WB. The specific IKKγ S85 band (lower band) was identified by induction following irradiation and by sensitivity to ATMi and λ-phosphatase (λ-PP) treatment. The asterisk indicates a non-specific band that was neither inducible nor ATMi sensitive. (B) Experiment was done as shown in (A) using MEF cells. (C) HEK293 cells were pre-treated with DMSO or MW01, irradiated and lysed. Lysates were used to immunoprecipitate IKKγ using an IKKγ antibody.
Following cell lysis the protein concentration of samples was determined. For input controls, 40 μg lysate were mixed with 6×SDS-buffer and denatured by heating to 95° C. for 4 min. Approximately 1500 μg protein lysate was used for pulldown and samples volumes were equalled with lysis buffer. Lysates were precleared with 30 μl sepharose A or sepharose G beads (depending on the antibody type used for pulldown) for 30 min, and centrifuged for 5 min at 1,500×g. The supernatant was transferred to a new reaction tube. Primary antibody (2-2.5 μg) was added to the cleared lysate for immunoprecipitation overnight while rotating at 4° C. The next day 30 μl sepharose beads per sample were used for immobilisation of antibodies. […]

HEK293 cells [3] = assay: Percentage of viable cells, annexin V / propidium-iodide exclusion, flow cytometry, HEK293 cells
Protocol: (§1) FIG. 16: (A) U2OS cells were pre-treated with DMSO or MW01 and irradiated. Cells were lysed 8 h post γ-IR and were used for western blotting and immunochemical staining. (B) HEK293 cells were pre-treated with DMSO or MW01 and irradiated. After 48 h cells were fixed and stained with crystal violet. Dissolved crystal violet was used for absorbance measurement in a visible light spectrophotometer at a wavelength of 595 nm. (C) HEK293 cells were pre-treated with DMSO or MW01 and irradiated. The percentage of viable cells within the population was calculated by exclusion of annexin V and propidium-iodide positive cells measured by flow cytometry. (D) MEF cells were pre-treated with DMSO or MW01 and irradiated. Cells were used for annexin V staining 24 h and 48 after γ-IR. Percentage of annexin V positive cell population was analysed using a flow cytometer. (E) Experiment done as shown in (D) but with HT1080 cells processed 8 h after irradiation. Statistical significance was calculated using students t-test.
Cells were washed with ice-cold PBS and detached from growing dishes using Trypsin/EDTA solution. Detached cells were centrifuged at 300×g for 5 min. Detection of early apoptotic cells was performed by staining with annexin V-FITC antibody according to manufacturer's instructions (eBioscience Annexin V-FITC Apoptosis detection Kit). […]

HEK293 cells [4] = assay: Crystal violet staining (cell number), HEK293 cells
Protocol: as §1
For crystal violet staining, cells were washed with ice-cold PBS and fixed with 4% PFA in PBS for 15 min under a fume hood. After washing with PBS, cells were stained with 0.1% crystal violet for 20 min at RT. […] Then, 0.25 ml of stain was diluted 1:4 in ddH2O and absorbance was measured at 595 nm using a spectrophotometer against 10% acetic acid as blank.

COc1ccc2c(c1OC)c(=O)n1c3ccc(O)cc3c3ccnc2c31 [MW01, 12-hydroxy-6,7-dimethoxy-8H-benzo[c]indolo[3,2,1-ij][1,5]naphthyridin-8-one]
p65 S536 phosphorylation following IL-1β stimulation ([1]; U2OS): neither inhibited p65 S536 phosphorylation | IKK activation and p65 S536 phosphorylation after IL-1β at high concentrations ([1]; up to 100 μM): no effect on the phosphorylation state of IKK or p65 | p65 S536 phosphorylation level ([2]; HepG2, 5 μM, irradiated, 60 min): drastically reduced | TAK1 and p65 phosphorylation ([2]; HepG2, γ-IR): abolished | IKKγ mono-ubiquitination (IKKγ mono-ubiquitination): abolishment | less viable cells after irradiation (HEK293 cells [3]; HEK293, after irradiation): ~17% | percentage of viable cells compared to the DMSO control (HEK293 cells [3]; HEK293, non-irradiated): slightly reduced | cell number compared to the DMSO/IR control (HEK293 cells [4]; HEK293, 48 h after irradiation): significant effect on further reduction in cell number | cell number in comparison to DMSO treated samples (HEK293 cells [4]; HEK293, not irradiated): reduced the cell number
